Measurements published in US3974281A, “5-Methyl-1-phenyl-2-(1H)-pyridone compositions and methods of use” (priority 1974, dated 1976).
“Also recorded” adds a separate entry of the source.

Key:
[1] = system: dog lung tissues; assay: Protection of mucous membranes against noxious agents, microscopic examination of dog lung tissues; type: in vivo
[2] = Tolerability on administration over extended periods; type: in vivo
Description: It may be administered orally, topically, parenterally, intradermally, by inhalation spray in formulations containing conventional non-toxic pharmaceutically acceptable carriers, adjuvants and vehicles. The term parenteral as used herein includes subcutaneous injections, intravenous, intromuscular, intracisternal or intrathecal injection or infusion techniques.

[3] = Acute toxicity in mice; type: in vivo; conditions: mouse, in vivo, ip; fasted albino mice, intraperitoneal; read-out: Intraperitoneally LD50
Procedure: (§1) in fasted albino mice (Flanders) the LD50 for AMR-69 and aminopyrine was determined by standard procedures with the following results: […]

[4] = system: fasted albino mice (Flanders); assay: Acute toxicity in mice; type: in vivo; conditions: oral and intraperitoneal
Procedure: as §1

[5] = system: skin conditions; assay: Effect on skin conditions (dermatitis, itching, insect sting, poison ivy) in humans; type: in vivo, human
[6] = system: blood; assay: Blood studies after administration for efficacy, and acute and chronic toxicity; type: in vivo; conditions: therapeutic or sublethal amounts; rats, mice, rabbits and dogs
[7] = system: mucous linings of the respiratory system; assay: Clinical trials on humans with sinusitis, post-nasal drip, rhinitis, conjunctivitis, headache, earache, sore throat; type: in vivo, human; conditions: oral capsule, approximately 400 mg. per capsule
[8] = system: rabbit eye (conjunctival sac); design: species or system albino rabbits of the New Zealand strain; conditions: in vivo
Procedure: six male albino rabbits of the New Zealand strain were incorporated in this study. A dosage of 0.1 ml. of AMR-69-62 (2% Aqueous Solution) was introduced into the conjunctival sac of the left eye of each rabbit; the right eye served as an untreated control. The six treated rabbit eyes were scored against the corresponding untreated control eyes according to the method of Draize (Draize, J.H., in Appraisal of the Safety of Chemicals in Foods, Drugs and Cosmetics, Assoc. of Food and Drug Officials of U.S., Austin, Tex., 1959) at 0.5 minutes, 30 minutes and 3.0 hours after administration of AMR-69.

[9] = system: glucose level in the serum; assay: Reduction in serum glucose levels, nine week diet test in rats; type: in vivo, weanling rats of the Carworth Farms CFE Strain
[10] = system: serum uric acid; assay: Reduction in serum uric acid levels, rats; type: in vivo, albino male and female rats
Procedure: normal adult albino male and female rats were given repeated graded doses of AMR-69 and the effect upon serum uric acid levels was determined. There were 10 males and 10 females in each group. The control group received the placebo and the drug was administered orally by admixture to the food. The serum uric acid determination was one of a series performed utilizing the Autotechnicon technique (Lofland et al., 1965 Technicon Symposium) using the Standard SMA-12 procedure (based upon procedure of Bittner et al., AM. J. Clin. Path. 40:423, 1963).
The lowering in serum uric acid levels shown by AMR-69 in tests on rats and on dogs has been noted.

[11] = system: edema (swelling), experimental inflammation in the hind limb of rats; assay: Anti-inflammatory activity, reduction of edema of experimentally inflamed hind limb; type: in vivo, albino rats; conditions: oral
Procedure: anti-inflammatory activity was assayed by the method described by Margolin (ibid.) utilizing albino rats. The anti-inflammatory bio-assay basis is the ability to reduce the edema (swelling) when an experimental inflammation is induced in the hind limb of the rats.

[12] = Absorption into the blood stream; conditions: in vivo
[13] = system: mucous membranes of the nasopharynx and lungs; assay: Protection of mucous membranes of the nasopharynx and lungs, comparison with related pyridones; type: in vivo; conditions: comparison with related pyridones
[14] = system: rat lung tissues; assay: Protection of mucous membranes against noxious agents, gross examination of rat lung tissues; type: in vivo
[15] = Solubility; type: physicochemical
[16] = system: rats with the hind limb inflammed; assay: Analgesic activity, rats with inflamed hind limb (absence of squeal on flexion of inflamed ankle joint); type: in vivo, rat; conditions: oral
Procedure: the end-point for analgesic testing in rats with the hind limb inflammed is based on the absence of a squeal in response to flexion of the inflammed ankle joint (Method described by S. Margolin, Proceedings of an International Symposium on Non-Steroidal Anti-Inflammatory Drugs, Excerpta Medica International Congress, Series No. 82, 1964).
With AMR-93, the median effective dose was 325 ± 45 mg./kg.

[17] = system: experimentally-induced fever in albino rabbits; assay: Anti-pyretic activity, experimentally-induced fever in rabbits; type: in vivo
Procedure: anti-pyretic activity testing is based upon the ability of the drug to suppress the experimentally-induced fever in albino rabbits (F. M. Berger, et al. J. Pharmacology and Experimental Therapeutics, Vol. 127, No. 1, 1959 based upon the original presentations of G. Brownlee Quart. J. Pharm; Vol. 10, Pg. 609, 1937 and Quart. J. Pharm., Vol. 12, Pg. 45, 1939). The drugs under test are administered intraperitoneally and the response is compared to that of saline controls. The average change in temperature over a period of three hours following the administration of aminopyrine (100 mg./kg. i.p.), AMR-69 (100 mg./kg. i.p.) and the saline (isotonic) controls were as follows:
The effective anti-pyretic activity of AMR-69 in rabbits has been noted previously.

## Cc1ccc(=O)n(-c2ccccc2)c1 [AMR-69, 5-methyl-1-phenyl-2-(1H)-pyridone]
[1]
  protection against noxious focal respiratory tract pathology (petechiae, edema, hemorrhage, focal infection): affording protection against noxious focal respiratory tract pathology
[2]; effective dosage levels
  irritation of body tissues at effective dosage levels: relatively non-irritating to the various body tissues
[2]; extended periods
  side reactions on administration over extended periods: no untoward side reactions
[3]
  LD50: 420 ± 9 mg/kg
[4]
  lethal dosage level / toxicity as compared to aminopyrine: markedly lower toxicity; also recorded: significant higher lethal dosage level as compared to aminopyrine
[5]; oral capsule (procedure of preceding section)
  relief from the symptom, skin conditions: Relief from the symptom was rapid in each instance
[5]; powder applied directly to the affected skin areas
  relief from itching, contact dermatitis (poison ivy): substantially immediate relief from the characteristic itching
[5]; powder applied topically, poison ivy
  time to cessation of weeping of the affected areas: thirty
[6]
  blood dyscrasias: no indication of blood dyscrasias
[7]
  noxious effect of acute and chronic infections of the nasopharynx, cranial sinuses: arrested and relieved
[8]
  Draize evaluation of eye irritation: would not be considered as an irritant to the eye
  group mean Draize score at 0.5 minutes: 2.0
  group mean Draize score at 30 minutes: 0.0
  group mean Draize score at 3.0 hours: 0.0
[9]; female rats, 600 mg./kg./day in diet, control 173.0 mg.%
  mean glucose, female, 600 mg./kg./day: 144.8 mg.%
[9]; female rats, 900 mg./kg./day in diet, control 173.0 mg.%
  mean glucose, female, 900 mg./kg./day: 136 mg/dL
[9]; male rats, 600 mg./kg./day in diet, nine weeks, control 155.8 mg.%
  mean glucose in the serum, male, 600 mg./kg./day: 131.8 mg.%
[9]; male rats, 900 mg./kg./day in diet, nine weeks, control 155.8 mg.%
  mean glucose in the serum, male, 900 mg./kg./day: 132.6 mg.%
[10]; microscopic examination of focal tissues of sacrificed animals
  crystal deposition of uric acid or its salts (joints, liver, muscles, kidneys): no evidence of crystal deposition
[10]; rats, 30 and 100 mg./kg.
  reduction in serum uric acid, significance: statistically significant
[10]; rats, repeated oral 30 mg./kg. in food, placebo 1.53 ± 0.20 mg.%, T = 1.92 (P = 0.06)
  serum uric acid, 30 mg./kg.: 1.05 ± 0.15 mg.%
[10]; rats, repeated oral 100 mg./kg. in food, placebo 1.53 ± 0.20 mg.%, T = 3.25 (P< 0.01)
  serum uric acid, 100 mg./kg.: .78 ± 0.11 mg %
[11]; Rattus norvegicus, read-out: oral median effective dose (ED50), anti-inflammatory
  ED50: 200 ± 46 mg/kg
[11]; vs aminopyrine
  onset of the anti-inflammatory therapeutic effect: more rapid onset of the therapeutic effect
[12]
  absorption in the blood stream: very rapidly absorbed in the blood stream
[13]
  protection of mucous membranes of the nasopharynx and lungs: effective
[14]
  protection against noxious focal respiratory tract pathology (petechiae, edema, hemorrhage, focal infection): affording protection against noxious focal respiratory tract pathology
[15]
  solubility compared with other analgesic uricosuric agents: more readily soluble than other analgesic uricosuric agents
[16]; Rattus norvegicus, read-out: oral ED50 (median analgesic dose)
  ED50: 145 ± 26 mg/kg
[16]
  analgesic effectiveness by the oral route as compared to aminopyrine: as effective as aminopyrine
  onset of analgesic effect as compared to aminopyrine: more rapid onset of analgesic effect
[17]; 100 mg./kg. i.p., fevered albino rabbits, saline controls +0.9 ±0.17°C
  average change in temperature over a period of three hours: -0.4 ±0.12 °C
[17]; 100 mg./kg. i.p., aminopyrine t = 6.6, p < 0.01, AMR-69 t = 6.3, p < 0.01
  reduction in fever as compared to the saline control: highly significant
[17]; rabbits, induced fever
  anti-pyretic activity: effective anti-pyretic agent
